Source: patent publication US10526336B2, “Fused heteroaryl derivatives as orexin receptor antagonists” (Merck Sharp & Dohme Corp., priority 2014, dated 2020)
pIC50: −log10 of the molar value.

target: human orexin-2 receptor (Homo sapiens (Human), UniProt O43614); experiment: FLIPR Ca2+ Flux Assay, orexin-2 receptor antagonism in CHO cells; assay type: cell-based; details: CHO cells expressing the human orexin-2 receptor; agonist 70 pM Ala-6,12 orexin-A; read-out: hOX2 FLIPR IC50
Outline: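 CHO cells expressing rat OX1R or human OX2R, Fluo-4AM loaded, given compounds for 5 min, then challenged with 70 pM Ala-6,12 human orexin-A in HBSS/HEPES/BSA/probenecid, pH 7.4. FLIPR calcium fluorescence recorded 5 min; peak height versus agonist-alone gives IC50.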

Chain of human orexin-2 receptor (O43614 whole entry): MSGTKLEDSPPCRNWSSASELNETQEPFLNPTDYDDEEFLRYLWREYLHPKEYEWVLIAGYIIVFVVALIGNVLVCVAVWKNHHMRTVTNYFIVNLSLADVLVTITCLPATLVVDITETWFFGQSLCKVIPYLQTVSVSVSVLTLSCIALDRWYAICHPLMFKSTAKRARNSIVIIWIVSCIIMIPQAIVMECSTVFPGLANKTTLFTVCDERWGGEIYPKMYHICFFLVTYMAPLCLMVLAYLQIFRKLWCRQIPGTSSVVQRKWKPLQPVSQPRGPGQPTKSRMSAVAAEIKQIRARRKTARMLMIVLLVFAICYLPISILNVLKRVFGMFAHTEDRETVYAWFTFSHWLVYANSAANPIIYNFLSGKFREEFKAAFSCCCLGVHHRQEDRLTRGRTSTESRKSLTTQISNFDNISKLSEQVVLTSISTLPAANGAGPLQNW

Compared with `COCc1ccccc1C(=O)N1C[C@H](Oc2nccn3c(C(F)F)cnc23)CC[C@H]1C` [Example 45, ((2R,5R)-5-((3-(difluoromethyl)imidazo[1,2-α]pyrazin-8-yl)oxy)-2-methylpiperidin-1-yl)(2-(methoxymethyl)phenyl)methanone], `C[C@@H]1CC[C@@H](Oc2nccn3c(C(F)F)cnc23)CN1C(=O)c1ccccc1-n1nccn1` [Example 38, (2-(2H-1,2,3-triazol-2-yl)phenyl)((2R,5R)-5-((3-(difluoromethyl)imidazo[1,2-a]pyrazin-8-yl)oxy)-2-methylpiperidin-1-yl)methanone] is 0.78 log units higher in pIC50: 6.97 for the first, 7.75 for the second.

`C[C@@H]1CC[C@@H](Nc2nccn3nccc23)CN1C(=O)c1ccccc1-n1nccn1` [Example 86, (2-(2H-1,2,3-triazol-2-yl)phenyl)((2R,5R)-2-methyl-5-(pyrazolo[1,5-a]pyrazin-4-ylamino)piperidin-1-yl)methanone] and `C[C@@H]1CC[C@@H](Nc2nccn3c(Cl)cnc23)CN1C(=O)c1ccccc1-n1nccn1` [Example 30, (2-(2H-1,2,3-triazol-2-yl)phenyl)((2R,5R)-5-((3-chloroimidazo[1,2-a]pyrazin-8-yl)amino)-2-methylpiperidin-1-yl)methanone] are within 0.2 log units of each other in pIC50: 7.69 for the first, 7.86 for the second.

`C[C@@H]1CC[C@@H](Oc2nccn3ncc(Br)c23)CN1C(=O)c1ccccc1-n1nccn1` [Example 88, (2-(2H-1,2,3-triazol-2-yl)phenyl)((2R,5R)-5-((3-bromopyrazolo[1,5-a]pyrazin-4-yl)oxy)-2-methylpiperidin-1-yl)methanone] and `C[C@@H]1CC[C@@H](Oc2nccn3c(Br)cnc23)CN1C(=O)c1ccccc1-n1nccn1` [Example 33, (2-(2H-1,2,3-triazol-2-yl)phenyl)((2R,5R)-5-((3-bromoimidazo[1,2-a]pyrazin-8-yl)oxy)-2-methylpiperidin-1-yl)methanone] are within 0.2 log units of each other in pIC50: 8.14 for the first, 8.05 for the second.

Compared with `C[C@@H]1CC[C@@H](Oc2nccn3nccc23)CN1C(=O)c1cscc1-n1nccn1` [Example 71, (4-(2H-1,2,3-triazol-2-yl)thiophen-3-yl)((2R,5R)-2-methyl-5-(pyrazolo[1,5-α]pyrazin-4-yloxy)piperidin-1-yl)methanone], `C[C@@H]1CC[C@@H](Oc2nccn3nccc23)CN1C(=O)c1ccsc1-n1nccn1` [Example 70, (2-(2H-1,2,3-triazol-2-yl)thiophen-3-yl)((2R,5R)-2-methyl-5-(pyrazolo[1,5-a]pyrazin-4-yloxy)piperidin-1-yl)methanone] is 0.21 log units higher in pIC50: 7.80 for the first, 8.01 for the second. The second is the more potent here.

`Cc1cn2ccnc(O[C@@H]3CC[C@@H](C)N(C(=O)c4cscc4-n4nccn4)C3)c2n1` [Example 8, (4-(2H-1,2,3-triazol-2-yl)thiophen-3-yl)((2R,5R)-2-methyl-5-((2-methylimidazo[1,2-α]pyrazin-8-yl)oxy)piperidin-1-yl)methanone] and `Cc1cn2ccnc(O[C@@H]3CC[C@@H](C)N(C(=O)c4ccc(F)cc4-n4nccn4)C3)c2n1` [Example 10, (4-fluoro-2-(2H-1,2,3-triazol-2-yl)phenyl)((2R,5R)-2-methyl-5-((2-methylimidazo[1,2-α]pyrazin-8-yl)oxy)piperidin-1-yl)methanone] are within 0.2 log units of each other in pIC50: 7.41 for the first, 7.51 for the second.

First: C[C@@H]1CC[C@@H](Oc2nccn3c(C(F)F)cnc23)CN1C(=O)c1ccccc1-c1ncccn1 [Example 54, ((2R,5R)-5-((3-(difluoromethyl)imidazo[1,2-a]pyrazin-8-yl)oxy)-2-methylpiperidin-1-yl)(2-(pyrimidin-2-yl)phenyl)methanone]
Second: C[C@@H]1CC[C@@H](Oc2nccn3c(C(F)F)cnc23)CN1C(=O)c1nccnc1-c1ccccn1 [Example 47, ((2R,5R)-5-((3-(difluoromethyl)imidazo[1,2-α]pyrazin-8-yl)oxy)-2-methylpiperidin-1-yl)(3-(pyridin-2-yl)pyrazin-2-yl)methanone]
The pIC50 of the first is 0.43 log units higher: 7.62 for the first, 7.19 for the second.

First: CC(C)Oc1ccccc1C(=O)N1C[C@H](Oc2nccn3nccc23)CC[C@H]1C [Example 84, (2-isopropoxyphenyl)((2R,5R)-2-methyl-5-(pyrazolo[1,5-α]pyrazin-4-yloxy)piperidin-1-yl)methanone]
Second: C[C@@H]1CC[C@@H](Oc2nccn3nccc23)CN1C(=O)c1ccccc1-n1ncnn1 [Example 76, (2-(2H-tetrazol-2-yl)phenyl)((2R,5R)-2-methyl-5-(pyrazolo[1,5-α]pyrazin-4-yloxy)piperidin-1-yl)methanone]
The pIC50 of the first is 0.20 log units lower: 7.36 for the first, 7.56 for the second.

Compared with `C[C@@H]1CC[C@@H](Oc2nccn3c(C(F)F)cnc23)CN1C(=O)c1ccc(F)cc1-n1nccn1` [Example 43, ((2R,5R)-5-((3-(difluoromethyl)imidazo[1,2-α]pyrazin-8-yl)oxy)-2-methylpiperidin-1-yl)(4-fluoro-2-(2H-1,2,3-triazol-2-yl)phenyl)methanone], `C[C@@H]1CC[C@@H](Oc2nccn3c(C(F)F)cnc23)CN1C(=O)c1cscc1-n1nccn1` [Example 41, (4-(2H-1,2,3-triazol-2-yl)thiophen-3-yl)((2R,5R)-5-((3-(difluoromethyl)imidazo[1,2-α]pyrazin-8-yl)oxy)-2-methylpiperidin-1-yl)methanone] is 0.46 log units lower in pIC50: 7.80 for the first, 7.34 for the second.

`Cc1cn2ccnc(O[C@@H]3CC[C@@H](C)N(C(=O)c4cscc4-c4ncccn4)C3)c2n1` [Example 13, ((2R,5R)-2-methyl-5-((2-methylimidazo[1,2-a]pyrazin-8-yl)oxy)piperidin-1-yl)(4-(pyrimidin-2-yl)thiophen-3-yl)methanone] and `Cc1cn2ccnc(O[C@@H]3CC[C@@H](C)N(C(=O)c4cccnc4-c4ccccc4)C3)c2n1` [Example 17, ((2R,5R)-2-methyl-5-((2-methylimidazo [1,2-α]pyrazin-8-yl)oxy)piperidin-1-yl) (2-phenylpyridin-3-yl)methanone] are within 0.2 log units of each other in pIC50: 7.20 for the first, 7.16 for the second.

`Cc1ncc2c(O[C@@H]3CC[C@@H](C)N(C(=O)c4ccccc4-n4nccn4)C3)nccn12` [Example 103, (2-(2H-1,2,3-triazol-2-yl)phenyl)((2R,5R)-2-methyl-5-((3-methylimidazo[1,5-a]pyrazin-8-yl)oxy)piperidin-1-yl)methanone] and `C[C@@H]1CC[C@@H](Oc2nccc3c2ncn3C)CN1C(=O)c1ccccc1-n1nccn1` [Example 98, (2-(2H-1,2,3-triazol-2-yl)phenyl)((2R,5R)-2-methyl-5-((1-methyl-1H-imidazo[4,5-c]pyridin-4-yl)oxy)piperidin-1-yl)methanone] are within 0.2 log units of each other in pIC50: 7.63 for the first, 7.54 for the second.

Going from `Cc1cn2ccnc(O[C@@H]3CC[C@@H](C)N(C(=O)c4ccccc4CS(C)(=O)=O)C3)c2n1` [Example 12, ((2R,5R)-2-methyl-5-((2-methylimidazo[1,2-α]pyrazin-8-yl)oxy)piperidin-1-yl)(2-((methylsulfonyl)methyl)phenyl)methanone] to `Cc1cn2ccnc(O[C@@H]3CC[C@@H](C)N(C(=O)c4ccccc4-n4ncnn4)C3)c2n1` [Example 11, (2-(2H-tetrazol-2-yl)phenyl)((2R,5R)-2-methyl-5-((2-methylimidazo[1,2-α]pyrazin-8-yl)oxy)piperidin-1-yl)methanone], the pIC50 rises from 7.34 to 7.65 (0.31 log units).

First: C[C@@H]1CC[C@@H](Oc2nccn3nccc23)CN1C(=O)c1ccc(F)cc1-n1nccn1 [Example 73, (4-fluoro-2-(2H-1,2,3-triazol-2-yl)phenyl)((2R,5R)-2-methyl-5-(pyrazolo[1,5-α]pyrazin-4-yloxy)piperidin-1-yl)methanone]
Second: C[C@@H]1CC[C@@H](Oc2nccn3cc(C#N)nc23)CN1C(=O)c1ccccc1-n1nccn1 [Example 24, 8-(((3R,6R)-1-(2-(2H-1,2,3-triazol-2-yl)benzoyl)-6-methylpiperidin-3-yl)oxy)imidazo[1,2-a]pyrazine-2-carbonitrile]
The pIC50 of the first is 0.80 log units higher: 7.85 for the first, 7.05 for the second.

Compared with `COC(=O)c1ccccc1C(=O)N1C[C@H](Oc2ccnc3ocnc23)CC[C@H]1C` [Example 93, methyl 2-((2R,5R)-2-methyl-5-(oxazolo[5,4-b]pyridin-7-yloxy)piperidine-1-carbonyl)benzoate], `C[C@@H]1CC[C@@H](Oc2ccnc3ocnc23)CN1C(=O)c1ccccc1-n1nccn1` [Example 91, (2-(2H-1,2,3-triazol-2-yl)phenyl)((2R,5R)-2-methyl-5-(oxazolo[5,4-b]pyridin-7-yloxy)piperidin-1-yl)methanone] is 0.46 log units higher in pIC50: 7.33 for the first, 7.79 for the second. The second is the more potent here.

`C[C@@H]1CC[C@@H](Oc2cccn3c(=O)n(C)nc23)CN1C(=O)c1ccccc1-n1nccn1` [Example 106, 8-(((3R,6R)-1-(2-(2H-1,2,3-triazol-2-yl)benzoyl)-6-methylpiperidin-3-yl)oxy)-2-methyl-[1,2,4]triazolo[4,3-a]pyridin-3(2H)-one] and `C[C@@H]1CC[C@@H](Nc2nccc3nn(C)cc23)CN1C(=O)c1ccccc1-n1nccn1` [Example 97, (2-(2H-1,2,3-triazol-2-yl)phenyl)((2R,5R)-2-methyl-5-((2-methyl-2H-pyrazolo[4,3-c]pyridin-4-yl)amino)piperidin-1-yl) methanone] are within 0.2 log units of each other in pIC50: 6.75 for the first, 6.91 for the second.

`C[C@@H]1CC[C@@H](Oc2nccn3c(Cl)cnc23)CN1C(=O)c1ccccc1-n1ncnn1` [Example 27, (2-(2H-tetrazol-2-yl)phenyl) ((2R,5R)-5-((3-chloroimidazo[1,2-α]pyrazin-8-yl)oxy)-2-methylpiperidin-1-yl)methanone] and `C[C@@H]1CC[C@@H](Oc2nccn3c(Cl)cnc23)CN1C(=O)c1ccccc1C1(C#N)CC1` [Example 28, 1-(2-((2R,5R)-5-((3-chloroimidazo[1,2-α]pyrazin-8-yl)oxy)-2-methylpiperidine-1-carbonyl)phenyl) cyclopropanecarbonitrile] are within 0.2 log units of each other in pIC50: 8.04 for the first, 8.02 for the second.

`C[C@@H]1CC[C@@H](Oc2nccn3c(C(F)F)cnc23)CN1C(=O)c1cccnc1OCC(F)(F)F` [Example 50, ((2R,5R)-5-((3-(difluoromethyl)imidazo[1,2-α]pyrazin-8-yl)oxy)-2-methylpiperidin-1-yl)(2-(2,2,2-trifluoroethoxy)pyridin-3-yl)methanone] showed a pIC50 of 7.58.
